Measurements from US10683315B2, “Prodrug of an HCV NS5B polymerase inhibitor and method of production and application thereof” (priority 2017, dated 2020).
“And” between values parts separate entries of the source, which are not always exact repeats. Identical values can stand only once.

Tests used:
Huh7 cells = assay: Cytotoxicity in Huh7 cells, ATPLite kit; assay type: cell-based, human
Experimental: The cytotoxicity of tested compositions comprising the prodrugs was evaluated concurrently in the same cell line Huh7 using an ATPLite kit (Perkin-Elmer, Boston, USA) in accordance with the manufacturer's instruction. The cell suspension in complete culture medium (DMEM 1×, Cellgro; cat. #10-013-CV) was transferred into 96-well plates with black walls and transparent bottoms (50 μl/well) with a final density of 7500 cells per well. Eighteen hours after planting the cells, serial drug dilutions (50 μl/well) were added. The plate with cells was incubated for 4 days at 37° C. in a humidified 5% CO2 atmosphere. The cells were then twice washed with PBS (200 μl/well) and lysed by adding a lytic buffer (50 μl/well); all reagents were taken from the ATPLite kit. Following a 5-minute stirring on a shaker, a substrate was added (50 μl/well). After an additional 5-minute incubation, the plate was kept for 10 minutes in the dark, and luminescence in the wells was measured using the multifunctional reader Victor^3 V 1420 (Perkin Elmer). The values of CC50 for tested prodrugs were measured from a cytotoxicity curve plotted using the GraphPad Prizm software.

[1] = Stability in human liver S9 fraction; assay type: in vitro ADME
Experimental: Proteins were deposited on ice for 15 min. The samples were then centrifuged for 10 min at 3000 rpm, and the supernatant (150 μl) was sampled for analysis.
Tolbutamide (Fluka) was used as the internal standard.

[2] = from Sofia et al. J. Med. Chem. 2010; cited from earlier work

Compound | CC90 (Huh7 cells; Huh7, 10% FBS) | CC50 (Huh7 cells; Huh7, ATPLite, 4 days) | metabolic rate in human liver microsomal S9 fraction, times faster than cyclohexyl ester of formula A1 ([1]; ratio of T1/2 vs A1) | metabolic rate in human liver microsomal S9 fraction, times faster than Sovaldi ([1]; ratio of T1/2 vs Sovaldi) | T1/2 human S9 [2]
C[C@H](N[P@](=O)(OC[C@H]1O[C@@H](n2ccc(=O)[nH]c2=O)[C@](C)(F)[C@@H]1O)Oc1ccccc1)C(=O)OC1CCC1 [Prodrug 1.1, cyclobutyl (S)-2-{(S)-[(2R,3R,4R,5R)-5-(3,4-dihydro-2,4-dioxo-2H-pyrimidin-1-yl)-3-hydroxy-4-methyl-4-fluoro-tetrahydrofuran-2-ylmethoxy]-phenoxy-phosphorylamino}-propanoate] | > 100 µM | > 100 µM | 28 times | 11 times | –
CC(C)OC(=O)[C@H](C)N[P@](=O)(OC[C@H]1O[C@@H](n2ccc(=O)[nH]c2=O)[C@](C)(F)[C@@H]1O)Oc1ccccc1 [Sovaldi®, Sofosbuvir] | – | – | – | – | 34.2 min and 32.4 min
